Laboratory results published in article PMC6990439, “Novel Sulfonanilide Inhibitors of SHIP2 Enhance Glucose Uptake into Cultured Myotubes” (ACS Omega, 2020).
Entries after “also recorded” stand apart in the source; their conditions may differ. Where two headings read alike, the source gives them in different places. Blank lines part the entries; values can stand above or below the compound they belong to.

Legend:
[1] = target: T1, recombinant SHIP2 phosphatase domain (Homo sapiens, UniProt O15357); experiment: SHIP2 activity measurement, malachite green phosphate assay; assay type: biochemical; details: for Emax: read-out: max. inhibition of SHIP2 activity; for IC50: 100 μM PI(3,4,5)P3, four-parameter curve-fit
T1 construct: 100 ng of purified His-tagged recombinant SHIP2 phosphatase domain; His tag
T1 sequence (O15357 419-732 limits assumed): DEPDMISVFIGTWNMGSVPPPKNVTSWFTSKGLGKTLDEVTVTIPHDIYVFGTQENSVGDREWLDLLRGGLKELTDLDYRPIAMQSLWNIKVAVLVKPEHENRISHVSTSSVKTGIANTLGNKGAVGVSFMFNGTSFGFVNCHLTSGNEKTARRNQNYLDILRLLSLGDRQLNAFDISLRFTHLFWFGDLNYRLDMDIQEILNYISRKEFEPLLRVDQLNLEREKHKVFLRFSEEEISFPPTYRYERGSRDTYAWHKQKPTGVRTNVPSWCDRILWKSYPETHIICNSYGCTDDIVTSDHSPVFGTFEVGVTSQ
Method: For the activity measurements and other biological assays, sulfonanilides 1–12 were dissolved in DMSO and then further diluted into indicated concentrations in assay buffers or media. The capacities of 1–12 to inhibit SHIP2 activity and the IC50 values of 1–12 were measured using the recombinant SHIP2 phosphatase domain and malachite green phosphate assay at the High Throughput Biomedicine Unit (University of Helsinki, Finland). Different concentrations of 1–12 were dispensed to 384-well plates after which 100 ng of purified His-tagged recombinant SHIP2 phosphatase domain in reaction buffer (10 mM HEPES, pH 7.25, 6 mM MgCl2, 0.1% CHAPS, 250 mM sucrose and 0.25 mM EDTA) was added, and the plates were incubated for 15 min at room temperature. The reaction was started by adding 7.5 μL of PI(3,4,5)P3 (Echelon Biosciences, Salt Lake City, UT, USA) diluted in the reaction buffer (the final concentration of PI(3,4,5)P3 per well was 100 μM in the total volume of 15 μL), plates were incubated for 20 min at room temperature, and 15 μL of BIOMOL green reagent (Biomol, Plymouth Meeting, PA, USA) was added to wells. After 25 min incubation at room temperature, the absorbance was measured at 620 nm using a Pherastar FS plate reader (BMG Labtech, Offenburg, Germany) (n = 3 for each condition).
Data are presented as means ± STD or SEM of three or four independent experiments. Statistical analyses were performed using an unpaired, two-tailed Student’s t-test. P-values ≤0.05 were considered statistically significant. IC50-values were calculated using GraphPad Software, Inc., Prism version 6.05 (San Diego, CA, USA) using four-parameter curve-fit.

L6-GLUT4 myotubes [2] = experiment: On-Cell Western for HA-GLUT4 on the plasma membrane; assay type: cell-based, Rat; details: for increase of GLUT4 on the plasma membrane with insulin stimulation, compared to control cells treated with insulin / increase of GLUT4 on the plasma membrane with insulin stimulation, compared to control cells without insulin / increase of GLUT4 on the plasma membrane without insulin stimulation: 50 μM, 20 h; for increase of GLUT4 on the plasma membrane without insulin stimulation: no insulin, vs control without insulin
Method: (§1) Rat L6 myoblasts (American Type Culture Collection, Manassas, Virginia, USA) and L6 myoblasts stably overexpressing HA-tagged GLUT4 transporter (L6-GLUT4) were grown in high glucose DMEM (Sigma-Aldrich) supplemented with 10% FBS (Sigma-Aldrich, St. Louis, MO, USA), glutamine (Lonza; Walkersville, MD, USA), and penicillin–streptomycin (Sigma-Aldrich) at +37 °C in a humidified 5% CO2 atmosphere. For differentiation, the FBS concentration in the medium was lowered to 2%.
Differentiated L6-GLUT4 myotubes cultured on 96-well plate were treated with sulfonanilides 10 or 11 at 50 μM concentration for 20 h, of which the last 4 h in a serum-free medium. The quiescent cells were stimulated or not with 100 nM insulin for 15 min at 37 °C and fixed with 2% paraformaldehyde on ice for 5 min followed by 20 min at room temperature. The cells were incubated with a primary antibody against HA.11 epitope tag (#901513, BioLegend, San Diego, CA, USA) diluted 1/100 in 50% Odyssey Blocking buffer (LI-COR) in PBS at room temperature for 1 h, followed by incubation with a secondary antibody (IRDye 800CW Donkey anti-Mouse, LI-COR) and the nuclear marker DRAQ-5 (Thermo Fisher Scientific, Rockford, IL, USA) at room temperature for 1 h. The fluorescent signals were detected and quantified with an Odyssey infrared imager (LI-COR). DRAQ-5 was used for normalization. Four independent experiments were performed, resulting in total in 30–34 replicates for each condition.

[3] = test system: Akt phosphorylation in L6 myotubes; experiment: Akt activation (phosphorylation at Ser473) assay, quantitative Western blotting; assay type: cell-based, Rat; details: 15 min pretreatment then 10 nM insulin for 15 min
Method: as §1
To measure the Akt activation (phosphorylation), L6 myoblasts were differentiated into myotubes for 7 days, serum starved O/N, and treated with 0–50 μM sulfonanilides for 15 min after which 10 nM insulin (Actrapid, Novo Nordisk, Bagsvaerd, Denmark) was added for an additional 15 min. The cells were lysed in NP-40 buffer (1% nonidet P-40, 20 mM Tris–HCl pH 7.4, 150 mM NaCl) supplemented with phosphatase inhibitors (50 mM NaF and 1 mM Na3VO4) and protease inhibitor cocktail (cOmpleteProtease Inhibitor Coctail tablets, Roche Diagnostics GmbH, Mannheim, Germany) and then immunoblotted as in Tolvanen et al.[32] Briefly, samples were separated in 8% polyacrylamide gels and transferred onto PVDF membrane (Immobilon-FL PVDF transfer membrane, Merck Millipore Ltd., Tullagreen, Ireland). […]

L6-GLUT4 myotubes [4] = experiment: Radioactive 2-deoxyglucose glucose uptake assay; assay type: cell-based, Rat; details: 50 μM, 20 h; for increase of glucose uptake with insulin stimulation: 100 nM insulin 15 min, compared to control cells stimulated with insulin; for increase of glucose uptake without insulin: serum starvation, no insulin, vs control
Method: as §1
Glucose uptake was measured by a radioactive 2-deoxyglucose assay. L6 myotubes overexpressing GLUT4 glucose transporter were differentiated for 8–9 days. Cells were serum-starved for 20 h supplemented with 50 μM of sulfonanilides 10 or 11, 50 μM of metformin. Thereafter, cells were stimulated or not with 100 nM insulin for 15 min at 37 °C in DMEM (without D-glucose, L-glutamine, phenol red, and sodium pyruvate) (Gibco/Thermo Fisher Scientific). The cells were exposed to 1 μCi/mL 2-deoxy-D-[1, 2-^3H(N)]-glucose (PerkinElmer, Waltham MA, USA) for 5 min at 37 °C. Cells were lysed in 1% Triton X-100 in PBS, and the radioactivity of lysates was measured with a Wallac 1450 Microbeta Trilux liquid scintillator and a luminescense counter (PerkinElmer). Four independent experiments were performed, with 4 technical replicates for each condition.

L6 myotubes = experiment: alamarBlue cell viability (cytotoxicity) assay; assay type: cell-based, Rat; details: for effect on metabolic activity of the cells (alamarBlue): 50 μM; for effect on cell viability: up to 200 μM
Method: as §1
For cytotoxicity analyses, L6 myoblasts were seeded on 96-well plates, differentiated for 7 days into myotubes, and incubated O/N with 0-300 μM sulfonanilides after which 10 μL of alamarBlue cell viability reagent (ThermoFisher Scientific, Waltham, MA, USA) was added according to the manufacturer instructions. The fluorescence was measured at 544/590 nm ± 20 nm using a Hidex Sense microplate reader (Hidex, Turku, Finland) at 0 and 60 min time points after the addition of the alamarBlue reagent, and the viability of the cells was calculated. The assay was repeated three times (n = 4 for each condition).

L6-GLUT4 myotubes [5] = test system: L6-GLUT4 myotubes; design: method as in PMID 30321069, PMID 1505458; details: cited from earlier work
[6] = purified His-tagged SHIP2 phosphatase domain
[7] = purified His-tagged SHIP2 phosphatase domain, 100 μM PI(3,4,5)P3, n = 3

Emax [1, 7]: 10 ± 5.1%
Compound: O=S(=O)(Nc1ccc(F)cc1Br)c1ccc(F)c(F)c1F [Compound 8, 2′-Bromo-4′-fluoro-2,3,4-trifluorobenzenesulfonanilide]

Emax [1, 7]: 9 ± 3%
Compound: O=S(=O)(Nc1ccc(F)cc1Br)c1ccoc1 [Compound 9, 2′-Bromo-4′-fluoro-3-furansulfonanilide]

IC50 [1, 6]: 41.2 µM
Emax [1, 7]: 45 ± 17%
Compound: O=S(=O)(Nc1ccc(F)cc1Br)c1cccs1 [Compound 10, 2′-Bromo-4′-fluoro-2-thiophenesulfonanilide]
increase of GLUT4 on the plasma membrane with insulin stimulation, compared to control cells treated with insulin (L6-GLUT4 myotubes [2]; 100 nM insulin 15 min): 10%
increase of GLUT4 on the plasma membrane with insulin stimulation, compared to control cells without insulin (L6-GLUT4 myotubes [2]; 100 nM insulin 15 min): 26%
increase of GLUT4 on the plasma membrane without insulin stimulation (L6-GLUT4 myotubes [2]): 4%
Akt activation at 50 μM [3]: Neither sulfonanilide 10 nor 11 activated Akt; also recorded: did not enhance Akt activation
increase of glucose uptake with insulin stimulation (L6-GLUT4 myotubes [4]): 30%
increase of glucose uptake without insulin (L6-GLUT4 myotubes [4]): 18–19%
effect on metabolic activity of the cells (alamarBlue) (L6 myotubes): slightly enhance the metabolic activity
effect on cell viability (L6 myotubes; O/N incubation): no or very little effect on cell viability; also recorded: not cytotoxic

IC50 [1, 6]: 7.07 µM
Emax [1, 7]: 45 ± 0.7%
Compound: CN(c1ccc(F)cc1F)S(=O)(=O)c1ccc(F)c(F)c1F [Compound 11, 2′,4′-Difluoro-N-methyl-2,3,4-trifluorobenzenesulfonanilide]
increase of GLUT4 on the plasma membrane with insulin stimulation, compared to control cells treated with insulin (L6-GLUT4 myotubes [2]; 100 nM insulin 15 min): no increase
increase of GLUT4 on the plasma membrane with insulin stimulation, compared to control cells without insulin (L6-GLUT4 myotubes [2]; 100 nM insulin 15 min): 15%
increase of GLUT4 on the plasma membrane without insulin stimulation (L6-GLUT4 myotubes [2]): 8%
Akt activation at 50 μM [3]: Neither sulfonanilide 10 nor 11 activated Akt; also recorded: did not enhance Akt activation
increase of glucose uptake with insulin stimulation (L6-GLUT4 myotubes [4]): 23%
increase of glucose uptake without insulin (L6-GLUT4 myotubes [4]): 18–19%
effect on metabolic activity of the cells (alamarBlue) (L6 myotubes): slightly enhance the metabolic activity
decrease of cell viability (L6 myotubes; 300 μM, O/N incubation): 24%
effect on cell viability (L6 myotubes; O/N incubation): no or very little effect on cell viability

max. inhibition of SHIP2 activity [1, 7]: almost inactive
Emax [1, 7]: 5 ± 1.7%
Compound: CN(c1ccc(F)cc1F)S(=O)(=O)c1cccs1 [Compound 12, 2′,4′-Difluoro-N-methyl-2-thiophenesulfonanilide]

Further lines, the compound ahead of its results:

Compound: CN(c1ccccc1)S(=O)(=O)c1ccccc1 [Compound 1, N-Methylbenzenesulfonanilide]
Emax [1]: 6 ± 2.8%

Compound: Cc1ccc(S(=O)(=O)N(C)c2ccccc2)cc1 [Compound 2, N-Methyl-p-toluenesulfonanilide]
Emax [1]: 10 ± 7.2%

Compound: CN(c1ccccc1)S(=O)(=O)c1ccc2ccccc2c1 [Compound 3, N-Methyl-2-naphthalenesulfonanilide]
IC50 [1, 6]: > 50 µM
Emax [1, 7]: 15 ± 1.6%

Compound: CN(c1ccccc1)S(=O)(=O)c1ccc(F)c(F)c1F [Compound 4, N-Methyl-2,3,4-trifluorobenzenesulfonanilide]
IC50 [1, 6]: > 50 µM
Emax [1, 7]: 12 ± 4%

Compound: CN(c1ccccc1)S(=O)(=O)c1ccoc1 [Compound 5, N-Methyl-3-furansulfonanilide]
Emax [1, 7]: 3 ± 1.5%

Compound: CN(c1ccccc1)S(=O)(=O)c1cccs1 [Compound 6, N-Methyl-2-thiophenesulfonanilide]
IC50 [1, 6]: > 50 µM
Emax [1, 7]: 11 ± 2.2%

Compound: Cc1ccc(S(=O)(=O)Nc2ccc(F)cc2Br)cc1 [Compound 7, 2′-Bromo-4′-fluoro-p-toluenesulfonanilide]
IC50 [1, 6]: > 50 µM
Emax [1, 7]: 17 ± 2.1%

Compound: CN(C)C(=N)N=C(N)N [Metformin, metformin, reference compound]
increase of glucose uptake with insulin stimulation (L6-GLUT4 myotubes [4]): did not enhance glucose uptake; also recorded: did not increase glucose uptake
increase of glucose uptake without insulin (L6-GLUT4 myotubes [4]): did not enhance glucose uptake
concentration necessary to increase glucose uptake into myotubes (L6-GLUT4 myotubes [5]): 2 mM

Compound: insulin: insulin (Actrapid, Novo Nordisk) used to stimulate myotubes
increase of GLUT4 on the plasma membrane by insulin stimulation alone (L6-GLUT4 myotubes [2]; control myotubes without sulfonanilide, 100 nM insulin 15 min, vs no insulin): 16%
